Test results as given in publication PMC3859723 (Biochemistry, 2013).

Legend:
[1] = biological target: R. sphaeroides cytochrome c oxidase (RsCcO) wild-type (Cereibacter sphaeroides, UniProt P33517+Q03736); experiment: biochemical; type: biochemical, Rhodobacter sphaeroides; details: for Shape of response in ligand titration: activation at low ligand concentration followed by inhibition at higher concentration
[2] = biological target: T1, RsCcO E101A mutant (Cereibacter sphaeroides, UniProt P33517+Q03736, E101A); details: cited from earlier work
T1 sequence (P33517 whole entry): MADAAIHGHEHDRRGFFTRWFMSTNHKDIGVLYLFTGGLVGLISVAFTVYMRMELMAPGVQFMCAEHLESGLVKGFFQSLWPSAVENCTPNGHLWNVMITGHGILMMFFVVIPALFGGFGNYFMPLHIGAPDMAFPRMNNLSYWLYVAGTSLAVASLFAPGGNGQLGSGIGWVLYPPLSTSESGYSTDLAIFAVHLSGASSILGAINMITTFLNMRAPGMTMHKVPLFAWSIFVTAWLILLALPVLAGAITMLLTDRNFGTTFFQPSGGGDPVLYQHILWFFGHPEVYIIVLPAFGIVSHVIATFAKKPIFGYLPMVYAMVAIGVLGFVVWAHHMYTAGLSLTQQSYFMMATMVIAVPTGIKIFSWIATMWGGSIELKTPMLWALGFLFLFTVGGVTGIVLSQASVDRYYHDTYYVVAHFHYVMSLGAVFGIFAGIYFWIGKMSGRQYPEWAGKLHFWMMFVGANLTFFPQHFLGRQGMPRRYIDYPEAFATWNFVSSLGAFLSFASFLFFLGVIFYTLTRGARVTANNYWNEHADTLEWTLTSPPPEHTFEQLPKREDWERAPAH
T1 sequence (Q03736 26-303 E101A): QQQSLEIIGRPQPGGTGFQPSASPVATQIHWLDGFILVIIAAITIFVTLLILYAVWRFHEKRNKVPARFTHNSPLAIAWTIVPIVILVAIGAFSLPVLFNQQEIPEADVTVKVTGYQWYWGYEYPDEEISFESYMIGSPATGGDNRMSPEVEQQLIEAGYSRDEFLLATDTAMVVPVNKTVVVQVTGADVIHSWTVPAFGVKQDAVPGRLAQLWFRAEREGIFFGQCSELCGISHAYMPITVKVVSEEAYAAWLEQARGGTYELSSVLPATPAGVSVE

[3] = biological target: T1, RsCcO E101A mutant; experiment: biochemical; design: species or system Rhodobacter sphaeroides

Chain of R. sphaeroides cytochrome c oxidase (RsCcO) wild-type (P33517 whole entry): as the sequence (P33517 whole entry) above
Chain of R. sphaeroides cytochrome c oxidase (RsCcO) wild-type (Q03736 26-303): as the sequence (Q03736 26-303 E101A) above, with A76E counted along it

## CC(C)=CCC/C(C)=C/CC/C(C)=C/CO[P@@](=O)(O)OP(=O)(O)O (stereo in doubt) [farnesyl diphosphate]
[1]; WT, saturating cytochrome c
  Effect on RsCcO activity at maximal ligand concentration: no significant effect

## Nc1ncnc2c1ncn2[C@@H]1O[C@H](COP(=O)(O)OP(=O)(O)O)[C@@H](O)[C@H]1O [ADP]
[1]; WT, saturating cytochrome c
  Effect on RsCcO activity at maximal ligand concentration: no significant effect

## Nc1ncnc2c1ncn2[C@@H]1O[C@H](COP(=O)(O)OP(=O)(O)NP(=O)(O)O)[C@@H](O)[C@H]1O [ATP analog, adenosine 5′-(β, γ-imido) triphosphate]
[1]; WT, 5 mM ATP analog, DOC 0–2 mM, saturating cytochrome c
  Competition with DOC inhibition of RsCcO: prevented DOC in the 0–2 mM range from inhibiting RsCcO activity
[1]; WT, 5 mM ligand, saturating cytochrome c
  Effect of ligand alone on RsCcO activity: no effect
[1]; WT, saturating cytochrome c
  Shape of response in ligand titration: biphasic response
[2]
  Effect on E101A mutant activity: very low stimulation and no inhibition of activity

## C[C@H](CCC(=O)O)[C@H]1CC[C@H]2[C@@H]3CC[C@@H]4C[C@H](O)CC[C@]4(C)[C@H]3C[C@H](O)[C@]12C [DOC, deoxycholate]
[1]
  IC50: 1400 µM
[1]; WT, 0–30 μM cytochrome c
  Mode of inhibition with respect to cytochrome c: noncompetitive inhibition
[1]; WT, saturating cytochrome c
  Maximal lowering of RsCcO activity: more than 90%
[3]; E101A mutant, 0–30 μM cytochrome c
  Mode of inhibition with respect to cytochrome c: noncompetitive inhibition

## Cc1cc2nc3c(=O)[nH]c(=O)nc-3n(C[C@H](O)[C@H](O)[C@H](O)COP(=O)(O)OP(=O)(O)OC[C@H]3O[C@@H](n4cnc5c(N)ncnc54)[C@H](O)[C@@H]3O)c2cc1C [FAD]
[1]; WT, saturating cytochrome c
  Effect on RsCcO activity at maximal ligand concentration: no significant effect

## CC(=O)O[C@H]1C[C@@]2(C)[C@@H](C[C@@H](O)[C@H]3[C@@]4(C)CC[C@@H](O)[C@@H](C)[C@@H]4CC[C@@]32C)/C1=C(\CCC=C(C)C)C(=O)O [Fusidic acid, fusidic acid]
[1]
  IC50: 3400 µM
  Ki: 2500 µM
[1]; WT, saturating cytochrome c
  Shape of response in ligand titration: biphasic response

## Nc1nc2c(ncn2[C@@H]2O[C@H](COP(=O)(O)OP(=O)(O)O)[C@@H](O)[C@H]2O)c(=O)[nH]1 [GDP]
[2]
  Effect on E101A mutant activity: very low stimulation and no inhibition of activity

## NC(=O)c1ccc[n+]([C@@H]2O[C@H](COP(=O)([O-])OP(=O)(O)OC[C@H]3O[C@@H](n4cnc5c(N)ncnc54)[C@H](O)[C@@H]3O)[C@@H](O)[C@H]2O)c1 [NAD^+]
[1]; WT, 0–30 μM cytochrome c
  Effect on RsCcO under low or high concentrations of cytochrome c: failed to affect RsCcO
[1]; WT, saturating cytochrome c
  Effect on RsCcO activity at maximal ligand concentration: no significant effect

## C[C@]12CCC(=O)C=C1CC[C@@H]1[C@@H]2[C@@H](O)C[C@]2(C=O)[C@@H](C(=O)CO)CC[C@@H]12 [aldosterone]
[1]; WT, 0–30 μM cytochrome c
  Effect on RsCcO under low or high concentrations of cytochrome c: failed to affect RsCcO
[1]; WT, saturating cytochrome c
  Effect on RsCcO activity at maximal ligand concentration: no significant effect

## C[C@]12CC[C@@H]3c4ccc(O)cc4CC[C@H]3[C@@H]1CC[C@@H]2O [estradiol]
[1]; WT, 0–30 μM cytochrome c
  Effect on RsCcO under low or high concentrations of cytochrome c: failed to affect RsCcO
[1]; WT, saturating cytochrome c
  Effect on RsCcO activity at maximal ligand concentration: no significant effect

## C[C@]12CCC(=O)C=C1CC[C@@H]1[C@@H]2[C@@H](O)C[C@@]2(C)[C@H]1CC[C@]2(O)C(=O)CO [hydrocortisone]
[1]; WT, 0–30 μM cytochrome c
  Effect on RsCcO under low or high concentrations of cytochrome c: failed to affect RsCcO
[1]; WT, saturating cytochrome c
  Effect on RsCcO activity at maximal ligand concentration: no significant effect

## CC1=C(/C=C/C(C)=C/C=C/C(C)=C/C(=O)O)C(C)(C)CCC1 [retinoic acid]
[1]
  IC50: 1700 µM
  Ki: 140 µM
[1]; WT, saturating cytochrome c
  Shape of response in ligand titration: biphasic response
[3]
  IC50: 190 µM

## C[C@]12CC[C@H]3[C@@H](CCC4=CC(=O)CC[C@@]43C)[C@@H]1CC[C@@H]2O [testosterone]
[1]; WT, 0–30 μM cytochrome c
  Effect on RsCcO under low or high concentrations of cytochrome c: failed to affect RsCcO
[1]; WT, saturating cytochrome c
  Effect on RsCcO activity at maximal ligand concentration: no significant effect

## cytochrome c: purified bovine heart cytochrome c used as the substrate
[1]; read-out: Km of cytochrome c, RsCcO WT and E101A, unchanged by DOC inhibition
  Km: ~1 µM
